Experimental data: article PMC3707936 (Molecular cancer therapeutics, 2013)
Like-named read-outs stand apart in the source and are kept apart here.

How the values were obtained:
[1] = system: GIST T1-10R cells; assay: Early apoptosis assay; format: cell-based; conditions: 1 μM, 24 h, Annexin V
[2] = system: GIST 882 cells; assay: Early apoptosis assay; format: cell-based; conditions: GIST 882, 1 μM, 24 h, Annexin V
[3] = system: phospho-c-KIT (Tyr719); assay: Western blot, phospho-c-KIT in GIST cells; format: cell-based
[4] = system: phospho-ERK1/2 (Thr202/Tyr204); assay: Western blot, phospho-ERK1/2 in GIST cells; format: cell-based; conditions: for pERK1/2 level, fold change: GIST T1-10R cells, 6 hours
[5] = system: Caspase 3/7; assay: Caspase 3/7 activity assay in GIST cells; format: cell-based; conditions: 0.1 and 1 μM, 72 hours
[6] = system: GIST-T1 cells; assay: Early apoptosis assay; format: cell-based; conditions: GIST-T1, 1 μM, 24 h, Annexin V
[7] = system: GIST-T1 cells; assay: Hit validation cell proliferation, 12-point dose-response, GIST-T1; format: cell-based
[8] = system: thioredoxin reductase (TrxR); conditions: for TrxR activity: 6 h
[9] = system: GIST 882 cells; assay: Hit validation cell proliferation, 12-point dose-response, GIST 882; format: cell-based; conditions: GIST 882, 1 μM, 72 hour
[10] = system: GIST T1-10R cells; assay: Hit validation cell proliferation, 12-point dose-response, GIST T1-10R; format: cell-based
[11] = system: reactive oxygen species (ROS); assay: Intracellular ROS activity measurement; format: cell-based
[12] = system: phospho-AKT (Ser473); assay: Western blot, phospho-AKT; format: cell-based; conditions: GIST 882 cells, all auranofin treatments, 6 h; site not specified
[13] = system: GIST-T1 cells; assay: Quantitative drug screen, CellTiter-Blue cell viability, GIST-T1; format: cell-based; conditions: read-out: IC50 GIST-T1; primary screen, 72 h, 10 μM to […] twofold dilutions; * = IC50 < 0.07 μM and drug showed no dose response
[14] = GIST 882 cells, all auranofin treatments, 6 h

CC(=O)OC[C@H]1O[C@@H]([S-])[C@H](OC(C)=O)[C@@H](OC(C)=O)[C@@H]1OC(C)=O.CCP(CC)CC.[Au+] [Auranofin]
fraction of early apoptotic cells, fold increase [1]: ~ 2.8 fold
fraction of early apoptotic cells, fold increase [2]: ~ 2.3 fold
phosphorylated level of cKIT [3, 14]: does not noticeably alter
p-cKT level, fold change ([3]; GIST-T1 cells, 1 or 10 μM, 6 hours): ~ 0.5 fold
phosphorylated level of ERK [4, 14]: does not noticeably alter
pERK1/2 level, fold change ([4]; 0.01 μM): ~ 3.0 fold
pERK1/2 level, fold change ([4]; 0.1 μM): ~ 3.6 fold
pERK1/2 level, fold change ([4]; 1 μM): ~ 2.7 fold
pERK1/2 level, fold change ([4]; 010 μM): ~ 2.4 fold
Caspase 3/7 activity [5]: able to increase
fraction of early apoptotic cells, fold increase [6]: ~ 4 fold
cell viability ([7]; GIST-T1, 1 μM, 72 hour): decrease in cell viability
cell proliferation induced by low-dose treatment, fold ([7]; GIST-T1, low-dose, 72 hour): 1.1–1.2 fold
IC50 ([7]; read-out: IC50 GIST-T1, hit validation, 12-point 20 μM to 1 nM, triplicate, 72 h): 250 ± 150 nM
TrxR activity ([8]; GIST T1-10R cells, 0.01 and 0.1 μM): significant decrease
TrxR activity ([8]; all three GIST cell lines, 1.0 and 10 μM): dramatically reduces
TrxR enzymatic activity ([8]; exposure up to 24 hours at 1 μM): inhibited
cell viability [9]: decrease in cell viability
cell viability ([10]; GIST T1-10R, 1 μM, 72 hour): decrease in cell viability
cell proliferation induced by low-dose treatment, fold ([10]; GIST T1-10R, low-dose, 72 hour): 1.1–1.2 fold
IC50 ([10]; read-out: IC50 GIST T1-10R, hit validation, 12-point 20 μM to 1 nM, triplicate, 72 h): 20 ± 10 nM
ROS production, fold change ([11]; GIST 882 cells, 1 and 10 μM, 6 h): 1.5 fold
ROS, fold change vs vehicle-treated cells ([11]; GIST 882 cells, across all auranofin treatments): ~ 1.5 fold
ROS formation, fold change ([11]; GIST T1-10R cells, 1 and 10 μM, 6 h): 2.6 fold
ROS ([11]; all three GIST cell lines, 0.01 and 0.1 μM, 6 h): remained relatively stable
ROS production with longer treatment ([11]; all three GIST cell lines, longer treatment): induces higher production of ROS
phosphorylated level of AKT [12]: does not noticeably alter
IC50 [13]: 230 nM
